Read-outs that look alike come from different tables or passages of the source.
Columns and labels:
[1] = system: coughing induced by aqueous citric acid aerosol; test: Antitussive action in the guinea pig (citric acid aerosol); format: in vivo; conditions: for inhibition in vivo at 22 mg/kg: 22 mg/kg p.o.; for antitussive activity (in words): oral
Source text: The technique used is that of SIECKMANN (W.) (in "Notions techniques de Pharmacologie generale" by Michel COLOT, page 75, Masson, Edit, 1972).
The guinea pigs .female. of mean weight 400 g, unanaesthesised, are subjected to the tussigenic effect of aerosols of a 7.5% aqueous citric acid solution. The animals are placed one by one in a cylindrical chamber having at its two extremities two canals, one serving as entrance for the aerosol and the other as its exit.
On the exit tube there is a lateral connection to a MERCURY gas pressure differential gauge joined to an RACIA counter. An adjustable screw clamp placed on the exit tube downstream of the lateral canal permits regulation of the sensitivity of the system such that the normal respiration of the animal only registers very weakly and that displacement of air in the chamber provoked by coughing attack is recorded clearly in the form of vertical traces.
Each guinea pig is first submitted to a control test for 5 minutes. One hour later it receives the test compound. It is replaced in the chamber for 5 minutes, 1 hour after oral administration of the compound.
The number of coughing attacks before and after administration is counted and the percentage inhibition is calculated.

[2] = system: coughing by stimulation of the superior larynx nerve; test: Antitussive action in the cat (stimulation of the superior larynx nerve); format: in vivo; conditions: for effect on coughing in cats (in words): i.v.
Experimental: The cats all thriving, male or female of weight between 1.5 and 2.5 kg (test on 10 cats) are anaesthesised by nembutal at a dose of 30 mg/kg interperitoneally.
A cannula having three branches is placed in the trachea. Two of the branches are connected to a device for registering intratracheal pressure (MERCURY gas pressure gauge connected to an RACIA polygraph) The third branch allows elimination of part of the respiratory volume.
A cannula is placed in the femoral vein for administration of the test substances.
The stimulation parameters are as follows: frequency: 5 cycles per sec, amplitude: 5 millisec, voltage: 4 to 6 volts, duration: 15 to 45 sec. (according to the sensitivity of the animal).
There are carried a minimum of 3 stimulations spaced by 5 minutes and provoking coughing attacks of the same severity. The compound is then administered intravenously. The stimulation is then carried out every 5 minutes. If the compound reduces or suppresses the coughing the stimulation is continued until the reappearance of coughing to approximately the same degree as the initial coughing.
The results are expressed as a percentage reduction in the number of coughs.

[3] = Acute toxicity in Mice; format: in vivo, mice (SWISS, EOPS, NMRI/Han, female); conditions: for LD50 at 360 h / MTD at 360 h: mouse, in vivo; for LD50 at 360 h / LD 50: method of KARBER and BEHRENS; for MTD at 360 h: read-out: LD 0 (maximum dose tolerated); for LD 0 (maximum dose tolerated) / LD 50: 21600 min
Experimental: The compounds are administered in increasing doses (in arithmetic progression) to groups of five .female. SWISS, EOPS, NMRI/Han mice of the EVIC CEBA strain and having a mean weight of 22 g.
For intravenous administration the compounds are dissolved in distilled water, for oral administration they are suspended in 10% gum arabic solution (volume administered: 0.5 ml/22 g body weight).
The LD 50's are calculated according to the method of KARBER and BEHRENS (B.) (Arch. Exp. Path. Pharmakol. 1935, 177, 379-388).
For each administration method, there is indicated:
LD 0 or maximum dose tolerated.
LD 100 or minimum lethal dose.
The number of animals surviving in the different groups is definitively verified 15 days after administrating the compounds.

[4] = system: toxicity of amphetamine compounds; test: Action on the toxicity of Amphetamine compounds in the mice; format: in vivo; conditions: per os
Experimental: (6) Action on the toxicity of Amphetamine compounds in the mice. (groups of 10 animals)
30 minutes after administration of the test compounds, amphetamine bitartrate is injected interperitioeally at a dose of 10 mg/kg (dose giving substantially 100% mortality) to mice in groups of 10 in boxes 12×18×13 cm. The number of animals surviving 24 hours after the amphetamine administration is noted.

[5] = Test on the cataleptic action in rats; format: in vivo; conditions: p.o., every 30 minutes for 6 hours
Experimental: (7) Test on the cataleptic action in rats (groups of 5 animals)
After administration p.o. of the test compounds, the degree of catalepsy is noted every 30 minutes for 6 hours by the test of crossing of the homolateral feet according to BOISSIER (J.R.) and SIMON (P.) (Therapy, 1963, 18, 1257-1277) and using the following notation:
0=animal which is not cataleptic
132 animal conserving position on one side only
2=animal conserving position on both sides

[6] = Cavia porcellus, po, 1 h, read-out: Percentages of inhibition of coughing

| Compound | LD50 at 360 h ([3]; po, oral administration) | MTD at 360 h ([3]; po, oral administration) | LD 100 (minimum lethal dose) ([3]; oral administration) | LD 100 (minimum lethal dose) ([3]; intravenous administration) | LD50 at 360 h ([3]; iv, intravenous administration) | MTD at 360 h ([3]; iv, intravenous administration) | other results |
| --- | --- | --- | --- | --- | --- | --- | --- |
| COc1ccc2c3c1O[C@H]1[C@@H](O)C=C[C@H]4[C@@H](C2)N(C)CC[C@@]341 [Codeine, reference compound] | – | – | – | – | – | – | inhibition in vivo at 35 mg/kg ([1]; Cavia porcellus, po, 1 h, 35 mg/kg p.o., read-out: Percentages of inhibition of coughing): 64%; inhibition in vivo at 70 mg/kg ([1]; Cavia porcellus, po, 1 h, 70 mg/kg p.o., read-out: Percentages of inhibition of coughing): 71%; % maximum reduction in the number of coughs ([2]; 3.5 mg/kg i.v.): 100% |
| OCC(O)CN1CCN(c2ccc(F)c(C(F)(F)F)c2)CC1 (stereo not drawn) [LJ 1121, 3-[4-(3-Trifluoromethyl-4-fluorophenyl)-piperazino]propane-1,2-diol] | 925 mg/kg | 500 mg/kg | 1250 mg/kg | – | – | – | – |
| OCC(O)CN1CCN(c2cccc(C(F)(F)F)c2)CC1 (stereo not drawn) [LJ 1142, 3-[4-(m-Trifluoromethylphenyl)-piperazino]-propane-1,2-diol] | 1120 mg/kg | 750 mg/kg | 1500 mg/kg | 300 mg/kg | 252 mg/kg | 225 mg/kg | – |
| OC1CCCCC1N1CCN(c2cccc(C(F)(F)F)c2)CC1 (stereo not drawn) [LJ 1143, 2-[4-(m-Trifluoromethylphenyl)-piperazino]-cyclohexanol] | 625 mg/kg | 250 mg/kg | 1000 mg/kg | 81 mg/kg | 69 mg/kg | 56 mg/kg | – |
| OC(CN1CCN(c2cccc(C(F)(F)F)c2)CC1)CN1CCN(c2cccc(C(F)(F)F)c2)CC1 [LJ 1145, 1,3-bis[4-(m-Trifluoromethylphenyl)-piperazino]-propan-2-ol] | – | – | 1000 mg/kg | – | – | – | LD 0 (maximum dose tolerated) ([3]; oral administration): 200 mg/kg; LD 50 ([3]; oral administration): 580 mg/kg; inhibition in vivo at 58 mg/kg ([1]; Cavia porcellus, po, 1 h, 58 mg/kg p.o., read-out: Percentages of inhibition of coughing): 58% |
| OC(CN1CCN(c2cccc(C(F)(F)F)c2)CC1)CN1CCN(c2cccc(C(F)(F)F)c2)CC1 [LJ 1152, 1,3-bis[4-(m-Trifluoromethylphenyl)-piperazino]-propan-2-ol] | – | – | 375 mg/kg | 50 mg/kg | 36 mg/kg | 25 mg/kg | LD 0 (maximum dose tolerated) ([3]; oral administration): 125 mg/kg; LD 50 ([3]; oral administration): 225 mg/kg; inhibition in vivo at 22 mg/kg [1, 6]: 64%; inhibition in vivo at 72 mg/kg ([1]; Cavia porcellus, po, 1 h, 72 mg/kg p.o., read-out: Percentages of inhibition of coughing): 75%; antitussive activity (in words) [1]: also active if not more active than codeine; % maximum reduction in the number of coughs ([2]; 3.6 mg/kg i.v.): 76%; % maximum reduction in the number of coughs ([2]; 7.2 mg/kg i.v.): 100%; effect on coughing in cats (in words) [2]: comparable with those of codeine |
| OC(CN1CCN(c2cccc(C(F)(F)F)c2)CC1)CN1CCN(c2cccc(C(F)(F)F)c2)CC1 [LJ 1154, 1,3-bis[4-(m-Trifluoromethylphenyl)-piperazino]-propan-2-ol] | – | – | 200 mg/kg | 44 mg/kg | – | – | LD 0 (maximum dose tolerated) ([3]; intravenous administration): 25 mg/kg; LD 50 ([3]; intravenous administration): 37.5 mg/kg; LD 0 (maximum dose tolerated) ([3]; oral administration): 50 mg/kg; LD 50 ([3]; oral administration): 135 mg/kg; inhibition in vivo at 6.75 mg/kg ([1]; Cavia porcellus, po, 1 h, 6.75 mg/kg p.o., read-out: Percentages of inhibition of coughing): 66%; inhibition in vivo at 13.5 mg/kg ([1]; Cavia porcellus, po, 1 h, 13.5 mg/kg p.o., read-out: Percentages of inhibition of coughing): 78%; antitussive activity (in words) [1]: also active if not more active than codeine; % maximum reduction in the number of coughs ([2]; 4 mg/kg i.v.): 80%; % maximum reduction in the number of coughs ([2]; 8 mg/kg i.v.): 100%; effect on coughing in cats (in words) [2]: comparable with those of codeine |
| O=C1CCCC1CN1CCN(c2cccc(C(F)(F)F)c2)CC1 (stereo not drawn) [LJ 1160] | 975 mg/kg | 500 mg/kg | 1500 mg/kg | 87.5 mg/kg | 74 mg/kg | 62.5 mg/kg | toxicity of amphetamine compounds (in words) [4]: reduce the toxicity of amphetamine compounds; cataleptic effect [5]: absence of cataleptic effect; inhibition in vivo at 100 mg/kg ([1]; Cavia porcellus, po, 1 h, 100 mg/kg p.o., read-out: Percentages of inhibition of coughing): 50% |
| OC1CCCCC1CN1CCN(c2cccc(C(F)(F)F)c2)CC1 (stereo not drawn) [LJ 1161, 2-[4-(m-Trifluoromethylphenyl)-piperazino]-methyl-cyclohexanol] | 1500 mg/kg | 750 mg/kg | 2000 mg/kg | 87.5 mg/kg | 66 mg/kg | 50 mg/kg | cataleptic effect [5]: absence of cataleptic effect; inhibition in vivo at 150 mg/kg ([1]; Cavia porcellus, po, 1 h, 150 mg/kg p.o., read-out: Percentages of inhibition of coughing): 75% |
| O=C(CN1CCN(c2cccc(C(F)(F)F)c2)CC1)CN1CCN(c2cccc(C(F)(F)F)c2)CC1 [LJ 1163] | 180 mg/kg | 125 mg/kg | 250 mg/kg | 22.5 mg/kg | 18 mg/kg | 12.5 mg/kg | inhibition in vivo at 9 mg/kg ([1]; Cavia porcellus, po, 1 h, 9 mg/kg p.o., read-out: Percentages of inhibition of coughing): 64%; inhibition in vivo at 18 mg/kg ([1]; Cavia porcellus, po, 1 h, 18 mg/kg p.o., read-out: Percentages of inhibition of coughing): 78%; antitussive activity (in words) [1]: also active if not more active than codeine; % maximum reduction in the number of coughs ([2]; 1.8 mg/kg i.v.): 50%; Delay in the disappearance of protective effect ([2]; 1.8 mg/kg i.v.): Fleeting; % maximum reduction in the number of coughs ([2]; 3.6 mg/kg i.v.): 62% |
| O=C1CCCCCC1CN1CCN(c2cccc(C(F)(F)F)c2)CC1 (stereo not drawn) [LJ 1176, 2-[4-(m-Trifluoromethylphenyl)-piperazino]-methyl-cycloheptanone] | 1950 mg/kg | 1500 mg/kg | 2500 mg/kg | – | – | – | cataleptic effect [5]: absence of cataleptic effect; inhibition in vivo at 200 mg/kg ([1]; Cavia porcellus, po, 1 h, 200 mg/kg p.o., read-out: Percentages of inhibition of coughing): 78% |
| OCCN1CCN(c2ccc(F)c(C(F)(F)F)c2)CC1 [LJ 1195, 2-[4-(3-Trifluoromethyl-4-fluorophenyl)-piperazino]-ethanol] | 844 mg/kg | 300 mg/kg | 1250 mg/kg | – | – | – | – |
| O=C1CCCCC1CN1CCN(c2ccc(F)c(C(F)(F)F)c2)CC1 (stereo not drawn) [LJ 1196, 2-[4-(3-Trifluoromethyl-4-fluorophenyl)-piperazino]-methyl-cyclohexanone] | 937 mg/kg | 625 mg/kg | 1250 mg/kg | – | – | – | – |
| OC(CN1CCN(c2ccc(F)c(C(F)(F)F)c2)CC1)CN1CCN(c2ccc(F)c(C(F)(F)F)c2)CC1 [LJ 1198, 1,3-bis[4-(3-Trifluoromethyl-4-fluorophenyl)-piperazino)-propan-2-ol] | 225 mg/kg | 50 mg/kg | 400 mg/kg | – | – | – | inhibition in vivo at 22 mg/kg [1, 6]: 50% |
